Results reported in US9771370B2, “Compounds for the inhibition of indoleamine-2,3-dioxygenase” (Merck Patent GmbH, priority 2014, dated 2017).

Target: Recombinant human IDO (Homo sapiens, UniProt P14902)
Test: Bridge-IT tryptophan fluorescence assay of human IDO-1 inhibition
Type: biochemical
Details: recombinant human IDO 7.5 nM, L-tryptophan
Summary of the method: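 Two protocol variants: 100 μM L-Trp for 90 min at 37 °C, or 30 min enzyme–compound pre-incubation at 25 °C, then 50 μM L-Trp for 60 min at 25 °C. Reaction stopped in Bridge-IT solution A for 30 min at 30 °C.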

Sequence of Recombinant human IDO (P14902 whole entry): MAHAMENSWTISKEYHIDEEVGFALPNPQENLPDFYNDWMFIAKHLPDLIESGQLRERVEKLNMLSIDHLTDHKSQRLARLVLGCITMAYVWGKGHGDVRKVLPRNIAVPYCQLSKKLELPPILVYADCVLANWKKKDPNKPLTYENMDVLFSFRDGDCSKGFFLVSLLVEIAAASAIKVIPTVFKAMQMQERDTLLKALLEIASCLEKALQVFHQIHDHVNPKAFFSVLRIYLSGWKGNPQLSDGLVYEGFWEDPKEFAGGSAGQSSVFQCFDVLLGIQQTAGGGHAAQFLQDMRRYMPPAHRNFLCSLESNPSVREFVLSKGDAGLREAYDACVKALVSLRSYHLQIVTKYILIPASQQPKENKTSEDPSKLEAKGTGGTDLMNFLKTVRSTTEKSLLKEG

Structure (SMILES) | IC50
CC(C)(O)C1CCC(F)(CCC2c3ccccc3-c3cncn32)CC1 (single isomer, unassigned) [Compound 61a, 2-[4-fluoro-4-[2-[5H-imidazo[4,3-a]isoindol-5-yl]ethyl]cyclohexyl]propan-2-ol] | > 1000 nM
OC1CCC(F)(CCC2c3c(F)ccc(F)c3-c3cncn32)CC1 (single isomer, unassigned) [Compound 38a, 4-(2-(6,9-difluoro-5H-imidazo[5,1-a]isoindol-5-yl)ethyl)-4-fluorocyclohexanol] | > 1000 nM
OC1CCC(F)(CCC2c3nccc(F)c3-c3cncn32)CC1 (mixture of isomers) [Compound 103a, 4-fluoro-4-(2-[12-fluoro-4,6,9-triazatricyclo[6.4.0.0^[2,6]]dodeca-1(8),2,4,9,11-pentaen-7-yl]ethyl)cyclohexan-1-ol] | > 1000 nM
NC(=O)C1CCC(C(O)CC2c3ncccc3-c3cncn32)CC1 (single isomer, unassigned) [Compound 63b, 4-[1-hydroxy-2-[4,6,9-triazatricyclo[6.4.0.0^[2,6]]dodeca-1(8),2,4,9,11-pentaen-7-yl]ethyl]cyclohexane-1-carboxamide] | > 1000 nM
FC1(CCC2c3c(Cl)cccc3-c3cncn32)CCCCC1 (single isomer, unassigned) [Compound 70a, 6-chloro-5-[2-(1-fluorocyclohexyl)ethyl]-5H-imidazo[4,3-a]isoindole] | > 1000 nM
Fc1ccnc2c1-c1cncn1C2CCC1(F)CCCCC1 (single isomer, unassigned) [Compound 102a, 12-fluoro-7-[2-(1-fluorocyclohexyl)ethyl]-4,6,9-triazatricyclo[6.4.0.0^[2,6]]dodeca-1(8),2,4,9,11-pentaene] | > 1000 nM
OC1CCC(F)(CCC2c3ncccc3-c3cncn32)CC1 (mixture of isomers) [Compound 7b, 4-fluoro-4-(2-{4,6,9-triazatricyclo[6.4.0.0^[2,6]]dodeca-1(8),2,4,9,11-pentaen-7-yl}ethyl)cyclohexan-1-ol] | > 1000 nM
OC(CC1c2nccc(F)c2-c2cncn21)C1CCCCC1 (single isomer, unassigned) [Compound 101b, 1-cyclohexyl-2-[12-fluoro-4,6,9-triazatricyclo[6.4.0.0^[2,6]]dodeca-1(8),2,4,9,11-pentaen-7-yl]ethan-1-ol] | > 1000 nM
OC(CC1c2nc(C(F)(F)F)ccc2-c2cncn21)C1CCC(F)(F)CC1 (single isomer, unassigned) [Compound 77b, 1-(4,4-difluorocyclohexyl)-2-[10-(trifluoromethyl)-4,6,9-triazatricyclo[6.4.0.0^[2,6]]dodeca-1(8),2,4,9,11-pentaen-7-yl]ethan-1-ol] | > 1000 nM
NC(=O)C1CCC(C(O)CC2c3ncccc3-c3cncn32)CC1 (single isomer, unassigned) [Compound 63d, 4-[1-hydroxy-2-[4,6,9-triazatricyclo[6.4.0.0^[2,6]]dodeca-1(8),2,4,9,11-pentaen-7-yl]ethyl]cyclohexane-1-carboxamide] | > 1000 nM
OC(CC1c2nc(OC3CC3)ccc2-c2cncn21)C1CCC(F)(F)CC1 (single isomer, unassigned) [Compound 69c, 2-[10-cyclopropoxy-4,6,9-triazatricyclo[6.4.0.0^[2,6]]dodeca-1(8),2,4,9,11-pentaen-7-yl]-1-(4,4-difluorocyclohexyl)ethan-1-ol] | > 1000 nM
CC1(C)CCC(C(O)CC2c3nc(F)ccc3-c3cncn32)CC1 (single isomer, unassigned) [Compound 25a, 1-(4,4-dimethylcyclohexyl)-2-[10-fluoro-4,6,9-triazatricyclo[6.4.0.0^[2,6]]dodeca-1(8),2,4,9,11-pentaen-7-yl]ethan-1-ol] | > 1000 nM
OC(CC1c2ncccc2-c2cncn21)C1CCC2(CC1)CC2 (single isomer, unassigned) [Compound 29b, 1-[spiro[2.5]octan-6-yl]-2-[4,6,9-triazatricyclo[6.4.0.0^[2,6]]dodeca-1(8),2,4,9,11-pentaen-7-yl]ethan-1-ol] | > 1000 nM
FC1(CCC2c3ncccc3-c3cncn32)CCCCC1 (single isomer, unassigned) [Compound 18b, 7-[2-(1-fluorocyclohexyl)ethyl]-4,6,9-triazatricyclo[6.4.0.0^[2,6]]dodeca-1(8),2,4,9,11-pentaene] | > 1000 nM
Fc1ccc2c(n1)C(CCC1(F)CCC(F)(F)CC1)n1cncc1-2 (stereo not shown) [Compound 46, 10-fluoro-7-[2-(1,4,4-trifluorocyclohexyl)ethyl]-4,6,9-triazatricyclo[6.4.0.0^[2,6]]dodeca-1(8),2,4,9,11-pentaene] | > 1000 nM
OC(CC1c2ncccc2-c2cncn21)C1CCOCC1 (single isomer, unassigned) [Compound 92d, 1-(oxan-4-yl)-2-[4,6,9-triazatricyclo[6.4.0.0^[2,6]]dodeca-1(8),2,4,9,11-pentaen-7-yl]ethan-1-ol] | > 1000 nM
O[C@H]1CC[C@](F)(CC[C@@H]2c3ccccc3-c3cncn32)CC1 [Compound 14a, (1R,4s)-4-(2-((R)-5H-imidazo[5,1-a]isoindol-5-yl)ethyl)-4-fluorocyclohexan-1-ol] | > 1000 nM

Further lines, results first:

IC50 | Structure (SMILES)
100 to 1000 nM | OC(CC1c2nc(C3CC3)ccc2-c2cncn21)C1CCC(F)(F)CC1 (single isomer, unassigned) [Compound 57c, 2-[10-cyclopropyl-4,6,9-triazatricyclo[6.4.0.0^[2,6]]dodeca-1(8),2,4,9,11-pentaen-7-yl]-1-(4,4-difluorocyclohexyl)ethan-1-ol]
100 to 1000 nM | OC(CC1c2ncccc2-c2cncn21)C1(F)CCCCC1 (single isomer, unassigned) [Compound 109c, 1-(1-fluorocyclohexyl)-2-[4,6,9-triazatricyclo[6.4.0.0^[2,6]]dodeca-1(8),2,4,9,11-pentaen-7-yl]ethan-1-ol]
100 to 1000 nM | COc1ccc2c(n1)C(CC(O)C1CCC(F)(F)CC1)n1cncc1-2 (stereo not shown) [Compound 33a, 1-(4,4-difluorocyclohexyl)-2-[10-methoxy-4,6,9-triazatricyclo[6.4.0.0^[2,6]]dodeca-1(8),2,4,9,11-pentaen-7-yl]ethan-1-ol]
< 100 nM | OCC1CCC(F)(CCC2c3c(Cl)cccc3-c3cncn32)CC1 (single isomer, unassigned) [Compound 105c, [4-[2-[6-chloro-5H-imidazo[4,3-a]isoindol-5-yl]ethyl]-4-fluorocyclohexyl]methanol]
100 to 1000 nM | FC1(CCC2c3ccccc3-c3cncn32)CCCCC1 (single isomer, unassigned) [Compound 1b, 5-(2-(1-fluorocyclohexyl)ethyl)-5H-imidazo[5,1-a]isoindole]
< 100 nM | NC(=O)C1CCC(F)(CCC2c3c(F)cccc3-c3cncn32)CC1 (single isomer, unassigned) [Compound 81d, 4-fluoro-4-[2-[6-fluoro-5H-imidazo[4,3-a]isoindol-5-yl]ethyl]cyclohexane-1-carboxamide]
100 to 1000 nM | Fc1cccc2c1C(CCC1(F)CCOCC1)n1cncc1-2 (single isomer, unassigned) [Compound 95b, 6-fluoro-5-[2-(4-fluorooxan-4-yl)ethyl]-5H-imidazo[4,3-a]isoindole]
100 to 1000 nM | CN(C)C(=O)C1CCC(F)(CCC2c3c(F)cccc3-c3cncn32)CC1 (stereo not shown) [Compound 111b, 4-fluoro-4-(2-[6-fluoro-5H-imidazo[4,3-a]isoindol-5-yl]ethyl)-N,N-dimethylcyclohexane-1-carboxamide]
100 to 1000 nM | OC(CC1c2c(Cl)cccc2-c2cncn21)C1(F)CCCCC1 (single isomer, unassigned) [Compound 83b, 2-[6-chloro-5H-imidazo[4,3-a]isoindol-5-yl]-1-(1-fluorocyclohexyl)ethan-1-ol]
100 to 1000 nM | OC(CC1c2ncccc2-c2cncn21)C1CCCCC1 (single isomer, unassigned) [Compound 5a, 1-cyclohexyl-2-[4,6,9-triazatricyclo[6.4.0.0^[2,6]]dodeca-1(8),2,4,9,11-pentaen-7-yl]ethan-1-ol]
< 100 nM | NC(=O)CC1CCC(F)(CCC2c3c(Cl)cccc3-c3cncn32)CC1 (single isomer, unassigned) [Compound 113a, 2-[4-[2-[6-chloro-5H-imidazo[4,3-a]isoindol-5-yl]ethyl]-4-fluorocyclohexyl]acetamide]
< 100 nM | NC(=O)C1CCC(F)(CCC2c3c(F)cccc3-c3cncn32)CC1 (single isomer, unassigned) [Compound 81c, 4-fluoro-4-[2-[6-fluoro-5H-imidazo[4,3-a]isoindol-5-yl]ethyl]cyclohexane-1-carboxamide]
100 to 1000 nM | OC(CC1c2nc(Cl)ccc2-c2cncn21)C1CCCCC1 (single isomer, unassigned) [Compound 55a, 2-[10-chloro-4,6,9-triazatricyclo[6.4.0.0^[2,6]]dodeca-1(8),2,4,9,11-pentaen-7-yl]-1-cyclohexylethan-1-ol]
< 100 nM | COc1ccc2c(n1)C(CC(O)C1CCC3(CC1)CC3)n1cncc1-2 (single isomer, unassigned) [Compound 53b, 2-[10-methoxy-4,6,9-triazatricyclo[6.4.0.0^[2,6]]dodeca-1(8),2,4,9,11-pentaen-7-yl]-1-[spiro[2.5]octan-6-yl]ethan-1-ol]
100 to 1000 nM | OC(CC1c2ncccc2-c2cncn21)C1CCC2(CC1)CC2 (single isomer, unassigned) [Compound 29c, 1-[spiro[2.5]octan-6-yl]-2-[4,6,9-triazatricyclo[6.4.0.0^[2,6]]dodeca-1(8),2,4,9,11-pentaen-7-yl]ethan-1-ol]
< 100 nM | O=C(C1CCC(F)(CCC2c3c(F)cccc3-c3cncn32)CC1)N1CCCCC1 (stereo not shown) [Compound 110a]
< 100 nM | O=C(O)C1CCC(F)(CCC2c3c(F)cccc3-c3cncn32)CC1 (single isomer, unassigned) [Compound 80a, 4-fluoro-4-(2-[6-fluoro-5H-imidazo[4,3-a]isoindol-5-yl]ethyl)cyclohexane-1-carboxylic acid]
